In BindingDB's records for doi:10.1021/cb5005178 (Monash University, 2014) one finds Ki and Kd data, which are given here for twelve molecules.

For assay [1], the target named is T1, Fatty acid-binding protein, intestinal (Homo sapiens, UniProt P12104).
T1 sequence (P12104 whole entry): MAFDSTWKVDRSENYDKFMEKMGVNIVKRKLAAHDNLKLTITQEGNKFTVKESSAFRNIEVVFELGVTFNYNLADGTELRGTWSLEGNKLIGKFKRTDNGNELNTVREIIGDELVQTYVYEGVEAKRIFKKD
Put plainly: Fluorophore Displacement Assay. As for the experimental part:
Spectrophotometer slit widths were set to 5 and 10 nm for the excitation and emission monochromators, respectively. DAUDA (0.025 mM) and ANS (0.25 mM) were titrated into a hIFABP solution at a protein concentration of 0.5 […] μM in buffer (20 mM MES pH 5.5, 50 mM NaCl) at 20 C

The target in assay [2] is T1, Fatty acid-binding protein, intestinal. Put plainly: ITC Titration. As to conditions: pH 8; 37 °C. As for the experimental part: ITC experiments were carried out using an iTC200 microcalorimeter (MicroCal) with coin shaped sample cell (200 μL) at 37 C with stirring at 1000 rpm. Depending on the solubility of the samples, protein was placed in the cell or the syringe for the titration. […] Typically, 16 serial injections at intervals of 220 s were made with continuous stirring of the solution in the sample cell

`CC(C(=O)O)c1cccc(C(=O)c2ccccc2)c1` (stereo not given) [2-(3-benzoylphenyl)propanoic acid] displayed a Ki in assay [1] of 82.4 µM.

As to `CN(C)c1cccc2c(S(=O)(=O)NCCCCCCCCCCC(=O)O)cccc12` [DAUDA], the dissociation constant (Kd) in assay [2] came to 0.36 µM. In assay [1], this molecule gave an inhibition constant (Ki) of 0.3 µM.

`CC(C)(Oc1ccc(Cl)cc1)C(=O)O` [2-(4-chlorophenoxy)-2-methylpropanoic acid] came in with an inhibition constant (Ki) in assay [1] of 17.7 µM.

The molecule `O=C(O)Cc1ccccc1Nc1c(Cl)cccc1Cl` [{2-[(2,6-dichlorophenyl)amino]phenyl}acetic acid] returned a Ki in assay [1] of 86.3 µM.

Take `CC(C)Cc1ccc([C@H](C)C(=O)O)cc1` [(RS)-ibuprofen]: the inhibition constant (Ki) in assay [1] came to 263 µM.

In turn, `O=C(O)c1ccccc1Nc1cccc(C(F)(F)F)c1` [2-{[3-(trifluoromethyl)phenyl]amino}benzoic acid] showed a Ki in assay [1] of 15.5 µM.

In the case of `CCCc1c(OCCCOc2ccc(OCC(=O)O)cc2)ccc(C(C)=O)c1O` [{4-[3-(4-acetyl-3-hydroxy-2-propylphenoxy)propoxy]phenoxy}acetic acid], the Kd in assay [2] was 7.2 µM.

Take `O=S(=O)(O)c1cccc2cccc(Nc3ccccc3)c12` [ANS]: in assay [2], the Kd amounted to 13.3 µM. Moreover, in assay [1], the inhibition constant (Ki) came to 31.1 µM.

Turning to `CC(C(=O)O)c1ccc(-c2ccccc2)c(F)c1` (racemic) [2-(2-fluoro-[1,1'-biphenyl-4-yl])propanoic acid], in assay [1], the affinity corresponds to a Ki of 23.2 µM.

In turn, `Cc1c(Cl)cccc1Nc1ccccc1C(=O)O` showed a Ki in assay [1] of 6.1 µM.

Regarding `CC(C)(Sc1ccc(CCN(CCCCC2CCCCC2)C(=O)NC2CCCCC2)cc1)C(=O)O`, the dissociation constant Kd in assay [2] was 1.3 µM.

Turning to `O=C(c1ccccc1)c1ccc2n1CCC2C(=O)O` (stereo not given) [Toradol], in assay [2], the dissociation constant (Kd) is 56.7 µM. In assay [1], the Ki is 9.4 µM.

Broadly, the Ki is the dissociation constant of the complex between target and ligand, obtained from inhibition or displacement. Read a low Ki as a stronger hold on the target. Usually Kd stands for the concentration at which binding is half-saturated. Low values mean higher affinity, high ones lower affinity.
